Reference: PubChem BioAssay (NCI)
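Values below derive from 48-hour exposures of cells grown in 96-well plates, with endpoints linearly interpolated between the two concentrations bracketing the appropriate inhibition level. At the TGI there is no net growth.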

How the values were obtained:
Experiment in all cases: DTP human tumour cell line panel, 48 h
HCT-15 colon = test system: HCT-15 colon
MDA-N = test system: MDA-N
UO-31 renal = test system: UO-31 renal
SN12C renal = test system: SN12C renal
DU-145 prostate = test system: DU-145 prostate
SF-295 CNS = test system: SF-295 CNS
A498 renal = test system: A498 renal
786-0 renal = test system: 786-0 renal
OVCAR-4 ovarian = test system: OVCAR-4 ovarian
T-47D breast = test system: T-47D breast
EKVX NSCLC = test system: EKVX NSCLC
HOP-92 NSCLC = test system: HOP-92 NSCLC
OVCAR-5 ovarian = test system: OVCAR-5 ovarian
COLO 205 colon = test system: COLO 205 colon
SR leukemia = test system: SR leukemia
SW-620 colon = test system: SW-620 colon
SK-OV-3 ovarian = test system: SK-OV-3 ovarian
HCT-116 colon = test system: HCT-116 colon
SF-268 CNS = test system: SF-268 CNS
K-562 leukemia = test system: K-562 leukemia
CCRF-CEM leukemia = test system: CCRF-CEM leukemia
RPMI-8226 leukemia = test system: RPMI-8226 leukemia
HS 578T breast = test system: HS 578T breast
UACC-62 melanoma = test system: UACC-62 melanoma
SK-MEL-28 melanoma = test system: SK-MEL-28 melanoma
CAKI-1 renal = test system: CAKI-1 renal
HL-60(TB) leukemia = test system: HL-60(TB) leukemia
SNB-75 CNS = test system: SNB-75 CNS
MOLT-4 leukemia = test system: MOLT-4 leukemia
MDA-MB-435 = test system: MDA-MB-435
M14 melanoma = test system: M14 melanoma
MDA-MB-231 breast = test system: MDA-MB-231 breast
NCI/ADR-RES ovarian = test system: NCI/ADR-RES ovarian
OVCAR-8 ovarian = test system: OVCAR-8 ovarian
SNB-19 CNS = test system: SNB-19 CNS
LOX IMVI melanoma = test system: LOX IMVI melanoma
RXF 393 renal = test system: RXF 393 renal
MALME-3M melanoma = test system: MALME-3M melanoma
BT-549 breast = test system: BT-549 breast
SF-539 CNS = test system: SF-539 CNS
NCI-H23 lung = test system: NCI-H23 lung
TK-10 renal = test system: TK-10 renal
IGROV1 ovarian = test system: IGROV1 ovarian
PC-3 prostate = test system: PC-3 prostate
KM12 colon = test system: KM12 colon
MCF7 breast = test system: MCF7 breast
A549 NSCLC = test system: A549 NSCLC
NCI-H460 lung = test system: NCI-H460 lung
HCC-2998 colon = test system: HCC-2998 colon
U251 CNS = test system: U251 CNS
HT29 colon = test system: HT29 colon
ACHN renal = test system: ACHN renal
HOP-62 NSCLC = test system: HOP-62 NSCLC
UACC-257 melanoma = test system: UACC-257 melanoma
OVCAR-3 ovarian = test system: OVCAR-3 ovarian
SK-MEL-2 melanoma = test system: SK-MEL-2 melanoma
SK-MEL-5 melanoma = test system: SK-MEL-5 melanoma
NCI-H522 lung = test system: NCI-H522 lung
NCI-H226 lung = test system: NCI-H226 lung

CC(=O)OCC1OC(N2C(=O)CC(N)=Nc3ccccc32)C(OC(C)=O)C(OC(C)=O)C1OC(C)=O (configuration not stated)
TGI (HCT-15 colon): > 100 µM
TGI (MDA-N): > 100 µM
TGI (UO-31 renal): > 100 µM
TGI (SN12C renal): > 100 µM
TGI (DU-145 prostate): > 100 µM
TGI (SF-295 CNS): > 100 µM
TGI (A498 renal): > 100 µM
TGI (786-0 renal): > 100 µM
TGI (OVCAR-4 ovarian): > 100 µM
TGI (T-47D breast): 82.2 µM
TGI (EKVX NSCLC): > 100 µM
TGI (HOP-92 NSCLC): > 100 µM
TGI (OVCAR-5 ovarian): > 100 µM
TGI (COLO 205 colon): 29.7 µM
TGI (SR leukemia): > 100 µM
TGI (SW-620 colon): > 100 µM
TGI (SK-OV-3 ovarian): > 100 µM
TGI (HCT-116 colon): > 100 µM
TGI (SF-268 CNS): > 100 µM
TGI (K-562 leukemia): > 100 µM
TGI (CCRF-CEM leukemia): > 100 µM
TGI (RPMI-8226 leukemia): 49.8 µM
TGI (HS 578T breast): > 100 µM
TGI (UACC-62 melanoma): > 100 µM
TGI (SK-MEL-28 melanoma): > 100 µM
TGI (CAKI-1 renal): > 100 µM
TGI (HL-60(TB) leukemia): > 100 µM
TGI (SNB-75 CNS): > 100 µM
TGI (MOLT-4 leukemia): 57.3 µM
TGI (MDA-MB-435): > 100 µM
TGI (M14 melanoma): > 100 µM
TGI (MDA-MB-231 breast): > 100 µM
TGI (NCI/ADR-RES ovarian): > 100 µM
TGI (OVCAR-8 ovarian): > 100 µM
TGI (SNB-19 CNS): > 100 µM
TGI (LOX IMVI melanoma): > 100 µM
TGI (RXF 393 renal): 95.1 µM
TGI (MALME-3M melanoma): > 100 µM
TGI (BT-549 breast): > 100 µM
TGI (SF-539 CNS): 67.5 µM
TGI (NCI-H23 lung): > 100 µM
TGI (TK-10 renal): > 100 µM
TGI (IGROV1 ovarian): > 100 µM
TGI (PC-3 prostate): > 100 µM
TGI (KM12 colon): > 100 µM
TGI (MCF7 breast): > 100 µM
TGI (A549 NSCLC): > 100 µM
TGI (NCI-H460 lung): > 100 µM
TGI (HCC-2998 colon): > 100 µM
TGI (U251 CNS): > 100 µM
TGI (HT29 colon): > 100 µM
TGI (ACHN renal): > 100 µM
TGI (HOP-62 NSCLC): > 100 µM
TGI (UACC-257 melanoma): > 100 µM
TGI (OVCAR-3 ovarian): > 100 µM
TGI (SK-MEL-2 melanoma): > 100 µM
TGI (SK-MEL-5 melanoma): 46.8 µM

NC(Cn1ccc(=O)c(O)c1)C(=O)O (configuration not stated)
TGI (HCT-15 colon): > 100 µM
TGI (MDA-N): > 100 µM
TGI (UO-31 renal): > 100 µM
TGI (SN12C renal): > 100 µM
TGI (DU-145 prostate): > 100 µM
TGI (SF-295 CNS): > 100 µM
TGI (A498 renal): > 100 µM
TGI (NCI-H522 lung): > 100 µM
TGI (786-0 renal): > 100 µM
TGI (OVCAR-4 ovarian): > 100 µM
TGI (T-47D breast): > 100 µM
TGI (EKVX NSCLC): > 100 µM
TGI (HOP-92 NSCLC): > 100 µM
TGI (OVCAR-5 ovarian): > 100 µM
TGI (COLO 205 colon): > 100 µM
TGI (SR leukemia): > 100 µM
TGI (SW-620 colon): > 100 µM
TGI (SK-OV-3 ovarian): > 100 µM
TGI (HCT-116 colon): > 100 µM
TGI (SF-268 CNS): > 100 µM
TGI (CCRF-CEM leukemia): > 100 µM
TGI (RPMI-8226 leukemia): > 100 µM
TGI (HS 578T breast): > 100 µM
TGI (UACC-62 melanoma): > 100 µM
TGI (SK-MEL-28 melanoma): > 100 µM
TGI (CAKI-1 renal): > 100 µM
TGI (HL-60(TB) leukemia): > 100 µM
TGI (MOLT-4 leukemia): > 100 µM
TGI (MDA-MB-435): > 100 µM
TGI (M14 melanoma): > 100 µM
TGI (NCI-H226 lung): > 100 µM
TGI (MDA-MB-231 breast): > 100 µM
TGI (NCI/ADR-RES ovarian): > 100 µM
TGI (OVCAR-8 ovarian): > 100 µM
TGI (SNB-19 CNS): > 100 µM
TGI (LOX IMVI melanoma): > 100 µM
TGI (RXF 393 renal): > 100 µM
TGI (MALME-3M melanoma): > 100 µM
TGI (BT-549 breast): > 100 µM
TGI (SF-539 CNS): > 100 µM
TGI (NCI-H23 lung): > 100 µM
TGI (TK-10 renal): > 100 µM
TGI (IGROV1 ovarian): > 100 µM
TGI (PC-3 prostate): > 100 µM
TGI (KM12 colon): > 100 µM
TGI (MCF7 breast): > 100 µM
TGI (A549 NSCLC): > 100 µM
TGI (NCI-H460 lung): > 100 µM
TGI (HCC-2998 colon): > 100 µM
TGI (U251 CNS): > 100 µM
TGI (HT29 colon): > 100 µM
TGI (ACHN renal): > 100 µM
TGI (HOP-62 NSCLC): > 100 µM
TGI (UACC-257 melanoma): > 100 µM
TGI (OVCAR-3 ovarian): > 100 µM
TGI (SK-MEL-2 melanoma): > 100 µM
TGI (SK-MEL-5 melanoma): > 100 µM

NS(=O)(=O)c1ccc(N=Nc2ccc(O)c(O)c2)cc1
TGI (HCT-15 colon): 12.6 µM
TGI (MDA-N): > 100 µM
TGI (UO-31 renal): 26.4 µM
TGI (SN12C renal): 44.9 µM
TGI (DU-145 prostate): > 100 µM
TGI (SF-295 CNS): > 100 µM
TGI (A498 renal): > 100 µM
TGI (NCI-H522 lung): 3.1 µM
TGI (786-0 renal): > 100 µM
TGI (OVCAR-4 ovarian): 29.1 µM
TGI (T-47D breast): > 100 µM
TGI (EKVX NSCLC): > 100 µM
TGI (HOP-92 NSCLC): 69.3 µM
TGI (OVCAR-5 ovarian): > 100 µM
TGI (COLO 205 colon): 40.3 µM
TGI (SR leukemia): 48 µM
TGI (SW-620 colon): 41.4 µM
TGI (SK-OV-3 ovarian): 67 µM
TGI (HCT-116 colon): 26.2 µM
TGI (SF-268 CNS): 50.2 µM
TGI (K-562 leukemia): > 100 µM
TGI (CCRF-CEM leukemia): 60 µM
TGI (RPMI-8226 leukemia): 39.7 µM
TGI (HS 578T breast): 67.3 µM
TGI (SK-MEL-28 melanoma): 37.2 µM
TGI (CAKI-1 renal): > 100 µM
TGI (HL-60(TB) leukemia): 86.9 µM
TGI (SNB-75 CNS): 60.8 µM
TGI (MOLT-4 leukemia): > 100 µM
TGI (MDA-MB-435): 32.2 µM
TGI (M14 melanoma): 65.2 µM
TGI (NCI-H226 lung): 40.8 µM
TGI (MDA-MB-231 breast): 38.8 µM
TGI (NCI/ADR-RES ovarian): 73.2 µM
TGI (OVCAR-8 ovarian): 21.5 µM
TGI (SNB-19 CNS): 84 µM
TGI (LOX IMVI melanoma): 36 µM
TGI (RXF 393 renal): 34.8 µM
TGI (MALME-3M melanoma): 54.9 µM
TGI (BT-549 breast): 14.4 µM
TGI (SF-539 CNS): 45.1 µM
TGI (NCI-H23 lung): 51.8 µM
TGI (TK-10 renal): 93 µM
TGI (IGROV1 ovarian): 28.3 µM
TGI (PC-3 prostate): > 100 µM
TGI (KM12 colon): 32.5 µM
TGI (MCF7 breast): > 100 µM
TGI (A549 NSCLC): 48.7 µM
TGI (NCI-H460 lung): 58.9 µM
TGI (HCC-2998 colon): 41.3 µM
TGI (U251 CNS): 72.9 µM
TGI (HT29 colon): 66.5 µM
TGI (ACHN renal): 17 µM
TGI (HOP-62 NSCLC): 56.3 µM
TGI (UACC-257 melanoma): 66.6 µM
TGI (OVCAR-3 ovarian): > 100 µM
TGI (SK-MEL-2 melanoma): 34 µM
TGI (SK-MEL-5 melanoma): 19.7 µM
